Measured values from patent publication US5811425A, “Heterocyclic compounds as COX-2 inhibitors” (Abbott Laboratories, priority 1997, dated 1998).
pIC50: −log10 of the molar value. Structures can show the parent of a compound that is named as a salt.

Key:
[1] = test system: carragennan induced pleurisy; experiment: Carragennan Induced Pleurisy Test (CIP); type: in vivo, Sprague-Dawley rats; details: Rattus norvegicus; rats, oral 10 mg/kg, 30 min before carrageenan; prostaglandin in pleural lavage at 4 h
Protocol: (§1) EIA Determination of Prostaglandins
(§2) EIA reagents for prostaglandin determination were purchased from Perspective Diagnostics, Cambridge, Mass. PGE2 levels in lavage fluids were determined after the samples were dried under nitrogen and reconstituted with assay buffer. PGE2 levels in enzyme assays or cell culture media were measured against standards prepared in the same milieu. The immunoassays were conducted as recommended by the manufacturer. The EIA was conducted in 96 well microtiter plates (Nunc Roskilde, Denmark) and optical density measured using a microplate reader (Vmax, Molecular Devices Corp., Menlo Park, Calif.).
Carragennan Induced Pleurisy Test (CIP)
Four hours after carrageenan injection, the animals were euthanized and their pleural cavities lavaged with ice cold saline. […] Prostaglandin levels in the methanol lavage fluid were then determined by EIA.

[2] = target: T1, recombinant human PGHS-1 (COX-1) (Homo sapiens, UniProt P23219); experiment: Recombinant human PGHS-1 enzyme assay (PGE2 production by EIA); type: biochemical; details: 100 uM compound; 60 min preincubation; 10 uM arachidonic acid; read-out: COX-1 (% inhib. @ 100 uM)
T1 construct: made in house; host or cells: baculovirus/Sf9 insect cells (microsomes)
T1 sequence (P23219 24-599): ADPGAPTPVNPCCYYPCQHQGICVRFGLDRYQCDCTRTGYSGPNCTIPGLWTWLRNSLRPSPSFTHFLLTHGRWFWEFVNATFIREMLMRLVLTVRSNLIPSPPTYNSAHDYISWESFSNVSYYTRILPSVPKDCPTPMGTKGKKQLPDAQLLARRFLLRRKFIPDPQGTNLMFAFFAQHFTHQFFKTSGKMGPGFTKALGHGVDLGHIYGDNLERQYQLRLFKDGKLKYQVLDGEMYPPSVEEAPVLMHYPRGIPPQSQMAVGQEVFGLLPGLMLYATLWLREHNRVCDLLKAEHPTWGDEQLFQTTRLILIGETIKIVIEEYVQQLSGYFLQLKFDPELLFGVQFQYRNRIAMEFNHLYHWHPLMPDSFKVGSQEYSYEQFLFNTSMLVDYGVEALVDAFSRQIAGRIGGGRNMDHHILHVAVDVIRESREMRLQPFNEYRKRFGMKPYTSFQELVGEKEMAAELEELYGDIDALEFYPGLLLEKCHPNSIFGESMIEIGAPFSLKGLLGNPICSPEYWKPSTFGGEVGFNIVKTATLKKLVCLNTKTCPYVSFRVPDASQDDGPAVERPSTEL
Protocol: Recombinant Human PGHS-l and -2 Enzyme Assays:
The reaction was allowed to run for 2.5 minutes at room temperature prior to quenching with HCl and neutralization with NaOH. PGE2 production in the presence and absence of the drug was determined by Enzyme ImmunoAssay ("EIA") analysis as described below.
as §1, §2

[3] = target: T2, recombinant human PGHS-2 (COX-2) (Homo sapiens, UniProt P35354); experiment: Recombinant human PGHS-2 enzyme assay (PGE2 production by EIA); type: biochemical; details: 60 min preincubation, 10 uM arachidonic acid; for inhibition at 0.1 µM: 100 nM compound
T2 construct: made in house; host or cells: baculovirus/Sf9 insect cells (microsomes)
T2 sequence (P35354 18-604): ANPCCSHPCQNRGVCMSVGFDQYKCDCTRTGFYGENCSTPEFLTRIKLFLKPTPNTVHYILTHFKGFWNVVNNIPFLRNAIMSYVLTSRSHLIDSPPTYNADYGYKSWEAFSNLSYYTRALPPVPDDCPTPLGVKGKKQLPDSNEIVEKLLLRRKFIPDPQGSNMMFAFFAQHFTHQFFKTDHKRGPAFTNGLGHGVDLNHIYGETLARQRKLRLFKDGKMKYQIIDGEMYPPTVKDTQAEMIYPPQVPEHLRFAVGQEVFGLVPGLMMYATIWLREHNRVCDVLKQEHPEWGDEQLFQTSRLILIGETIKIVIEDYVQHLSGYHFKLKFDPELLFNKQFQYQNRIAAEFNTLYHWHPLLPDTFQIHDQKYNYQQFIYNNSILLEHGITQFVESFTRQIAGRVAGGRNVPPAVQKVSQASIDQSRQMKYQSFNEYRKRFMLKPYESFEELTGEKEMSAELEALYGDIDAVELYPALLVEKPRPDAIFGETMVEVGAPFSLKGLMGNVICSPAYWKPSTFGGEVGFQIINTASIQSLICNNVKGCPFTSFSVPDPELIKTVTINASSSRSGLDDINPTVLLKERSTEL
Protocol: Recombinant Human PGHS-l and -2 Enzyme Assays: A compound of the invention was dissolved in DMSO (3.3%v/v) and preincubated with microsomes from recombinant human PGHS-1 and-2 expressed in the baculovirus/Sf9 cell system (Gierse, J. […] The reaction was allowed to run for 2.5 minutes at room temperature prior to quenching with HCl and neutralization with NaOH. PGE2 production in the presence and absence of the drug was determined by Enzyme ImmunoAssay ("EIA") analysis as described below. EIA Determination of Prostaglandins EIA reagents for prostaglandin determination were purchased from Perspective Diagnostics, Cambridge, Mass. PGE2 levels in lavage fluids were determined after the samples were dried under nitrogen and reconstituted with assay buffer. PGE2 levels in enzyme assays or cell culture media were measured against standards prepared in the same milieu. The immunoassays were conducted as recommended by the manufacturer. The EIA was conducted in 96 well microtiter plates (Nunc Roskilde, Denmark) and optical density measured using a microplate reader (Vmax, Molecular Devices Corp., Menlo Park, Calif.).

SMILES	inhibition in vivo at 10 mg/kg [1] [%]	inhibition at 100 µM [2] [%]	pIC50 [3]	inhibition at 0.1 µM [3] [%]
COc1ccc2c(c1)c(Cc1nc(-c3ccc(Br)cc3)cs1)c(C)n2C(=O)c1ccc(Cl)cc1 [Example 1, 3-[4-(4-bromophenyl)thiazol-2-ylmethyl]-1-(4-Chlorobenzoyl)-5-methoxy-2-methylindole]	43	32	9.52	
COc1ccc2c(c1)c(Cc1nc(-c3ccc(F)cc3F)cs1)c(C)n2C(=O)c1ccc(Cl)cc1 [Example 2, 1-(4-Chlorobenzoyl)-3-[4-(2.4-difluorophenyl)thiazol-2-ylmethyl]-5-methoxy-2-methylindole]	16	20		82
COc1ccc2c(c1)c(Cc1nc(-c3ccc4ccccc4c3)cs1)c(C)n2C(=O)c1ccc(Cl)cc1 [Example 3, 1-(4-Chlorobenzoyl)-5-methoxy-2-methyl-3-[4-(2-naphthyl)thiazol-2-ylmethyl]indole]		21	8.15	
COc1ccc2c(c1)c(Cc1nc(-c3cccc(Br)c3)cs1)c(C)n2C(=O)c1ccc(Cl)cc1 [Example 4, 3-[4-(3-bromophenyl)thiazol-2-ylmethyl]-1-(4-Chlorobenzoyl)-5-methoxy-2-methylindole]	24	35	8.10	
COc1ccc2c(c1)c(Cc1nc(-c3ccc(Cl)cc3)cs1)c(C)n2C(=O)c1ccc(Cl)cc1 [Example 5, 1-(4-Chlorobenzoyl)-3-[4-(4-Chlorophenyl)thiazol-2-ylmethyl]-5-methoxy-2-methylindole]		16	7.85	
COc1ccc2c(c1)c(Cc1nc(-c3ccc([N+](=O)[O-])cc3)cs1)c(C)n2C(=O)c1ccc(Cl)cc1 [Example 6, 1-(4-Chlorobenzoyl)-5-methoxy-2-methyl-3-[4-(4-nitrophenyl)thiazol-2-ylmethyl]indole]		26	7.92	
COc1ccc2c(c1)c(Cc1nc(-c3csc4ccccc34)cs1)c(C)n2C(=O)c1ccc(Cl)cc1 [Example 7, 3-[4-(3-benzothienyl)thiazol-2-ylmethyl]-1-(4-Chlorobenzoyl)-5-methoxy-2-methylindole]	20	23	9.00	
COc1ccc2c(c1)c(Cc1nc(-c3ccc(F)cc3)cs1)c(C)n2C(=O)c1ccc(Cl)cc1 [Example 8, 1-(4-Chlorobenzoyl)-3-[4-(4-fluorophenyl)thiazol-2-ylmethyl]-5-methoxy-2-methylindole]		36	7.92	
COc1ccc2c(c1)c(Cc1nc(-c3ccc(S(C)(=O)=O)cc3)cs1)c(C)n2C(=O)c1ccc(Cl)cc1 [Example 9, 1-(4-Chlorobenzoyl)-3-[4-(4-methanesulfonylphenyl)thiazol-2-ylmethyl]-5-methoxy-2-methylindole hydrobromide salt]		40	7.22	
COc1ccc2c(c1)c(Cc1nc(-c3cccc([N+](=O)[O-])c3)cs1)c(C)n2C(=O)c1ccc(Cl)cc1 [Example 10, 1-(4-Chlorobenzoyl)-5-methoxy-2-methyl-3-[4-(3-nitrophenyl)thiazol-2-ylmethyl]indole]		31		85
COc1ccc2c(c1)c(Cc1nc(-c3ccc(O)c([N+](=O)[O-])c3)cs1)c(C)n2C(=O)c1ccc(Cl)cc1 [Example 11, 1-(4-Chlorobenzoyl)-3-[4-(4-hydroxy-3-nitrophenyl)thiazol-2-ylmethyl]-5-methoxy-2-methylindole]	30	23		48
COc1ccc2c(c1)c(Cc1csc(-c3cccnc3)n1)c(C)n2C(=O)c1ccc(Cl)cc1 [Example 12, 1-(4-Chlorobenzoyl)-5-methoxy-2-methyl-3-[2-(3-pyridyl)thiazol-4-ylmethyl]indole]		40	7.70	
COc1ccc2c(c1)c(Cc1csc(-c3ccncc3)n1)c(C)n2C(=O)c1ccc(Cl)cc1 [Example 13, 1-(4-Chlorobenzoyl)-5-methoxy-2-methyl-3-[2-(4-pyridyl)thiazol-4-ylmethyl]indole]	14	49		77
COc1ccc2c(c1)c(Cc1nc(-c3ccc(Cl)cc3)cs1)c(C)n2Cc1ccc(Br)cc1 [Example 14, 1-(4-bromobenzyl)-3-[4-(4-Chlorophenyl)thiazol-2-ylmethyl]-5-methoxy-2-methylindole]	36	15	8.15	
COc1ccc2c(c1)c(Cc1nc(-c3ccc(Br)cc3)cs1)c(C)n2Cc1ccc(Br)cc1 [Example 15, 1-(4-bromobenzyl)-3-[4-(4-bromophenyl)thiazol-2-ylmethyl]-5-methoxy-2-methylindole]		15	7.52	
COc1ccc2c(c1)c(Cc1nc(-c3ccc([N+](=O)[O-])cc3)cs1)c(C)n2Cc1ccc(Br)cc1 [Example 16, 1-(4-bromobenzyl)-5-methoxy-2-methyl-3-[4-(4-nitrophenyl)thiazol-2-ylmethyl]indole]	31	21	8.15	
